Test [1] deals with FOS phosphorylation. As to the kind of experiment: Western blotting of phosphorylated FOS in K1 and A375 cells. The note with it: 0.5 uM PLX4032 for 0, 1 and 24 hours. Format: cell-based, human. On the procedure:
FIG. 6A-6J. BRAF V600E promoted FOS binding to GABPB by upregulating FOS phosphorylation. (FIG. 6A) Western blotting analyses for phosphorylated-FOS (p-FOS), total FOS (t-FOS), BRAF, and beta-actin in K1 and A375 cells with or without stable BRAF knockdown. (FIG. 6B) Western blotting analyses of p-FOS, t-FOS, p-ERK, and beta-actin in K1 and A375 cells treated with 0.5 uM PLX4032 for 0, 1, and 24 hours. (FIG. 6C-6E) Effects of FOS phosphorylation on GABPB and TERT activation. (FIG. 6C) KAT18 cells were serum-starved for 24 hours and transiently transfected with FOS wild-type (FOS-wt) or mutant (FOS-mut) bearing none of the potential ERK-targeted phosphorylation sites, followed by Western blotting analysis for TERT, GABPB, p-FOS, t-FOS, and beta-actin. (FIG. 6D) KAT18 cells were transfected with FOS-wt or FOS-mut along with GABPB 5′-UTR luciferase reporter and Renilla luciferase (pRL-TK) plasmids in the absence of serum for 24 hours, and the luciferase activities were then measured. […]
(§1) Cells were lysed in the RIPA buffer (#sc-24948; Santa Cruz Biotechnology, Santa Cruz, CA) with protease inhibitor cocktail (#P8340; Sigma-Aldrich) and phosphatase inhibitor cocktail (#P0044; Sigma-Aldrich) and Western blotting analysis was performed as we previously described^54. […] Signals were detected by SuperSignal™ West Pico PLUS Chemiluminescent Substrate (#34579; Thermo Fisher Scientific). […]
(In general: In western blotting, separated proteins are transferred to a membrane and probed.)

Test [2] relates to ERK phosphorylation. As to the kind of experiment: Western blotting of phosphorylated ERK in inhibitor-treated cells. The class given is cell-based, human. The note with it: 0.5 uM PLX4032, 24 hours. On the procedure:
FIG. 2A-2G. BRAF V600E/MAPK pathway regulated TERT expression. (FIG. 2A) TERT expression was analyzed by qRT-PCR in cells treated with 0.5 uM PLX4032 or 0.2 uM AZD6244 for 24 hours (upper panel). The corresponding levels of phosphorylated ERK (p-ERK), total ERK (t-ERK), and beta-actin were detected by Western blotting (lower panel). The relative TERT mRNA expression levels were normalized to the DMSO control group. (FIG. 2B) Luciferase reporting assay of TERT promoter activities in K1 cells treated with DMSO or PLX4032 (0.5 uM). (FIG. 2C, 2D) Specific shRNA against BRAF were used to knock down BRAF in thyroid cancer cell lines BCPAP and K1 and melanoma cell line A375. Scramble shRNA was used as control. Cells were then subjected to Western blotting (FIG. 2C) and qRT-PCR (FIG. 2D). (FIG. 2E) Sequencing of the BRAF exon-15 in the parental and heterozygous BRAF-V600E knock-in SW48 cells. BRAF V600E was knocked in on one allele of BRAF by rAAV technology through homologous recombination and Cre recombinase of the Neo cassette. (FIG. 2F) Western blotting analyses of phosphorylation of ERK (p-ERK), total ERK (t-ERK), BRAF, and beta-actin in the parental and BRAF-V600E knock-in SW48 cells. (FIG. 2G) TERT promoter luciferase reporter assay in SW48 cells with/without BRAF V600E knock-in. **P<0.01, ***P<0.001, by 2-tailed Student's t test. P values are for the comparison of the indicated condition with DMSO (FIG. 2B), scramble (FIG. 2D), or BRAF-WT groups (FIG. 2G). All the values represent the average standard deviation (SD) of triplicate samples from a typical experiment. All the experiments were performed three times with similar results. […]
as §1

Molecules are shown by their SMILES.

The source of these data is patent US11911356B2, “Regulation of mutant TERT by BRAF V600E/map kinase pathway through FOS/GABP in human cancer” (THE JOHNS HOPKINS UNIVERSITY, priority 2017, dated 2024).

On to `CCCS(=O)(=O)Nc1ccc(F)c(C(=O)c2c[nH]c3ncc(-c4ccc(Cl)cc4)cc23)c1F` [PLX4032], for which the “phosphorylation of FOS” value in test [1] was “significantly decreased the phosphorylation of FOS”. Also, the ERK phosphorylation entry in test [2] (cells harboring BRAF V600E mutation) is “specifically suppressed ERK phosphorylation”; in test [2] (several wild-type BRAF cell lines), “increase in ERK phosphorylation”.
